Source: patent US20240423988A1, “Improvement of Tumor Immunogenicity by Means of Splicing-Controlling Compound” (Kyoto University, priority 2021, published 2024)

Columns and labels:
[1] = tested on: various murine cancer cell lines (LLC, Pan02, WEHI3, CT26, EG7, B16, MC38); assay: RNA-seq analysis of splice-neoantigen producing events in various murine cancer cell lines; format: cell-based; conditions: LLC, Pan02, WEHI3, CT26, EG7, B16
Method: [FIG. 5-2] Continuation of FIG. 5. D and E: RT-PCR analysis for splice-neoantigen coding forms (splice-NA forms) in MC38 cells treated with 10 µM Compound 1 or vehicle control (0.1% DMSO) for 6 hours. Actb served as a loading control. * represents p<0.05, ** represents p<0.01, and *** represents p<0.001. F: Splice-neoantigen producing rates calculated from RNA-seq data (n=3 biological replicates) are indicated as the APSI (Compound 1-DMSO). All data are shown as the mean±SEM. All experiments were performed at least twice. Statistical significance was determined using unpaired Student's t-test for (B) and (E).
Then, whether the Compound 1-induced splice-neoantigens are shared across cancer type was examined using murine lung carcinoma LLC, pancreatic ductal adenocarcinoma Pan02, leukemia WEHI3, colorectal adenocarcinoma CT26, lymphoma EG7, and skin melanoma B16 cells.
The effects of Compound 2 on RNA splicing events (splicing alterations) producing the aforementioned six splice-neoantigens in various murine cancer cell lines were investigated through RNA-Seq analysis in the same manner as in FIG. 5-2F, except that Compound 1 was replaced with Compound 2 (FIG. 8).

MC38 cells = assay: RNA-seq analysis of RNA splicing patterns in MC38 cells; format: cell-based, murine
Method: [FIG. 4-1] FIG. 4. Identification of Compound 1-inducible splice-neoantigen candidates using RNA-seq analysis. A: A diagram of enhanced tumor immunity through compound 1-induced splice-neoantigens. B: A scheme for the screening of Compound 1-induced splice-neoantigen candidates through transcriptome analysis and prediction for MHC class I presentation. RNA-seq was conducted for MC38 cells treated with 10 μM Compound 1 or 0.1% DMSO for 6 hours in three biological replicates each. RNA-seq analysis was performed as detailed in the “Experimental Methods” section.
Aberrant selective splicing events in cancer cells may become a source of potential neoantigens. As it was confirmed that MHC class I in cancer cells is indispensable for the antitumor effects of Compound 1, Compound 1 was predicted to alter aberrant alternative splicing events and enhance the production of splice-neoantigens (FIG. 4-1A). To validate this concept, RNA-seq analysis was performed to assess RNA splicing patterns affected by Compound 1 in MC38 cells and splice products yielding potential neoantigens capable of binding to MHC class I (FIG. 4-1B). […] Next, to identify neoepitopes translating potential splice-neoantigens, splicing events elicited by Compound 1 that created abnormal coding sequences were extracted, and subsequently, whether these events create abnormal peptides were checked by comparing them with a reference peptide database.
With this approach, 169 Compound 1-induced non-annotated splice events for 130 genes were identified as neoantigen candidates, which were further subjected to prioritization based on the prediction scores for the binding affinity of each peptide to MHC class I alleles (H2-K^b and H2-D^b) with NetMHCpan4.1, the extents of splice rates, and mRNA expression (FIG. 4-2C).
RNA-Seq libraries were prepared using a TruSeq Stranded mRNA Library Kit (Illumina, San Diego, CA) and used for paired-end sequencing on an Illumina NovaSeq 6000 platform. RNA-seq data were mapped to the GRCm38 (mm10) genome sequence using HISAT2 program version 2.2.0 with the “--rna-strandness RF” option. Splice-junction information available from Ensembl gene annotation version 100 was used in this process. Mapped results were discarded when either of the paired reads was not mapped to the genome, or the relationships of mapping positions were abnormal.
For splicing analysis, rMATS program version 4.1.0 was used. For the reference transcript models used in the rMATS analysis, a set of new transcripts based on RNA-seq data was constructed using Cufflinks program version 2.2.1. Because the rMATS program skips soft-clipped reads and reads having indels in their alignment, bam files were modified to replace soft clipping and indel information as not changing the splice position information. After rMATS analysis, altered splicing events were extracted according to the following criteria: FDR<0.01, dPSI≥5.0, and average number of spliced reads≥15 in either of the samples.
Spliced regions were compared with Ensembl gene annotations for describing the amino acid sequence encoded in these regions. Amino acid sequences not observed in the original peptide database were searched and stored with seven amino acids margins from known sequences.

[2] = tested on: splenocytes (CD8^+ and CD4^+ T cells); assay: Ex vivo splenocyte culture assay (antigen-independent T cell activation); format: cell-based, mice; conditions: 24 hours
[3] = tested on: IKBKAP gene with IVS20+6T>C mutation; conditions: in vitro and in vivo; cited from earlier work

Clc1nc(NCc2ccco2)c2[nH]cnc2n1 [Compound 1]
induced splice alterations shared across cancer type [1]: shared in most of the examined cells | exonization induced in neurofibromin 1 (Nf1) (MC38 cells): 108 bp | genes with induced non-annotated splice events (MC38 cells; 10 μM, 6 hours): 130 | induced non-annotated splice events identified as neoantigen candidates (MC38 cells; 10 μM, 6 hours): 169 | mRNA expression and splicing patterns of H2-K^b and PD-L1 (MC38 cells; RNA-seq data): not significantly altered | mRNA expression of genes encoding conventional neoantigens (MC38 cells; data not shown): no effect | CD44^+ and CD69^+ marker expressions in CD8^+ and CD4^+ T cells ([2]; flow cytometry): no such effects | secretion of inflammatory cytokines IFN-γ and TNF-α ([2]; supernatant): not observed | aberrant splicing in the IKBKAP gene [3]: able to improve
